For orientation: IC50 means the point on the concentration scale where inhibition reaches its midpoint.

IC50 data for four compounds are collected here from patent publication US20240279281A1, “Peptide Inhibitors of Interleukin-23 Receptor” (Janssen Pharmaceutica NV, priority 2023, published 2024).

Each structure is given as a SMILES string. Starred links: 1 amine or outer side, 2 acyl side, 3 side chain; linkers in the order of their positions; H or OH if unused. Positions of bridges follow the written chain, without caps; N, C: chain ends. Non-standard residues stand in square brackets, D forms with d. Residues, ends and D or L forms follow the SMILES beside them. *: point of attachment. Me3N+(CH2)2O(CH2)2O(CH2)2CO = C[N+](C)(C)CCOCCOCCC(=O)*; 2Nal(6-OH) = N[C@@H](Cc1ccc2cc(O)ccc2c1)C(=O)O; Trp(7-Me) = Cc1cccc2c(C[C@H](N)C(=O)O)c[nH]c12; Abu(4-yl) = O=C([C@H](CC[*:3])N[*:1])[*:2]; AEF = NCCOc1ccc(C[C@H](N)C(=O)O)cc1; 3Pal = N[C@@H](Cc1cccnc1)C(=O)O; Aad = N[C@@H](CCCC(=O)O)C(=O)O; Lys(Me) = CNCCCC[C@H](N)C(=O)O; Pen = CC(C)(S)[C@H](N)C(=O)O; Thp = NC1(C(=O)O)CCOCC1; Ava = NCCCCC(=O)O; Sar = CNCC(=O)O

The target in assay [1] is T1, IL-23-stimulated phosphorylated STAT3 in peripheral blood mononuclear cells (PBMCs) (Homo sapiens, UniProt Q5VWK5).
T1 sequence (Q5VWK5 24-629): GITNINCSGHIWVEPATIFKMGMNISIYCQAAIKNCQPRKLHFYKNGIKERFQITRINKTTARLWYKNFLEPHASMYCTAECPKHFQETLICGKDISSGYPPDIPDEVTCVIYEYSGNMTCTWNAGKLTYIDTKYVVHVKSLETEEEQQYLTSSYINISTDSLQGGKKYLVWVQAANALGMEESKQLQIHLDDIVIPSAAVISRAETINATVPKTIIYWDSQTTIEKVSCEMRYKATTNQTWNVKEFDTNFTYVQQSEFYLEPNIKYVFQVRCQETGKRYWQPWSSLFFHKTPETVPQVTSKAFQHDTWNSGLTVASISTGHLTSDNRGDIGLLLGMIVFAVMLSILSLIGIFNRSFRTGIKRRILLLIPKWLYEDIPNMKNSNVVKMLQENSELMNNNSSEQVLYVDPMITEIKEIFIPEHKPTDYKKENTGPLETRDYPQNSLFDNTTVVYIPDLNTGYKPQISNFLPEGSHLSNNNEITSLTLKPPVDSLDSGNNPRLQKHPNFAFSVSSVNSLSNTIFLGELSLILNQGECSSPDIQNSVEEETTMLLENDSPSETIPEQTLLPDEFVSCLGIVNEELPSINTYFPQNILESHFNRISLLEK
In words: PBMC pSTAT3 Assay. The assay is classed as cell-based. Particulars: PBMCs from healthy donors, IL-23 5 ng/mL, 30 minutes, read-out: PBMC pSTAT3 IC50. Here is the method:
Cryopreserved peripheral blood mononuclear cells (PBMCs) from healthy donors were thawed and washed twice in ImmunoCult-XF T cell expansion medium (XF-TCEM) supplemented with CTL anti-aggregate wash. The cells were counted, resuspended at 2-6×10^5 cells per mL XF-TCEM supplemented with penicillin/streptomycin and 100 ng/mL IL-1β (BioLegend, 579404), and cultured in tissue culture flasks coated with anti-CD3 (eBioscience, 16-0037-85 or BD Pharmingen, 555329) at 37° C. in 5% CO2. On day 4 of culture, PBMCs were collected, washed twice in RPMI-1640 supplemented with 0.1% BSA (RPMI-BSA), and incubated in RPMI-BSA in upright tissue culture flasks for ˜4 hours at 37° C. in 5% CO2. Following this ‘starvation,’ a total of 6×10^4 cells in 30 μL RPMI-BSA was transferred into each well of a 384-well plate pre-spotted with peptide or DMSO. The cells were incubated for 30 minutes prior to the addition of IL-23 at a final concentration of 5 ng/mL. The cells were stimulated with cytokine for 30 minutes at 37° C. in 5% CO2, transferred onto ice for 10 minutes, and lysed. Cell lysates were stored at −80° C. until phosphorylated STAT3 was measured using the phospho-STAT panel kit (Meso Scale Discovery, K15202D).

For assay [2], the target named is T2, IL-23R (Homo sapiens, UniProt Q5VWK5).
T2 construct: host or cells: HEK293
T2 sequence (Q5VWK5 24-629): T1 sequence (Q5VWK5 24-629)
The assay is described as follows: IL23R Reporter Assay. It counts as cell-based. As to conditions: HEK293 cells containing IL-23R, IL-12Rβ1 and STAT-inducible luciferase reporter; 10 ng/mL IL-23; 5 h; read-out: IC50. Here is the method: Compounds were serially diluted in 100% (v/v) DMSO) and plated using an Echo acoustic dispenser (Labcyte) into 1536-well non-treated black assay plates (Corning #9146). […] After 5 h at 37° C., 5% CO2, 95% relative humidity, cells were placed at 20° C. and treated with BioGlo reagent (Promega) according to the Manufacturer's instructions. Luminescence was measured on a Pherastar FSX (BMG LabTech).

Regarding `C[C@@H](O)[C@@H]1NC(=O)[C@H](CC(N)=O)NC(=O)[C@@H]2CCSC[C@H](NC(=O)[C@H](CCC(N)=O)NC(=O)[C@H](Cc3c[nH]c4ccccc34)NC1=O)C(=O)N[C@@H](Cc1ccc(OCCN)cc1)C(=O)N[C@@H](Cc1ccc3cc(O)ccc3c1)C(=O)NC1(CCOCC1)C(=O)N[C@H](C(=O)N[C@@H](CC(N)=O)C(=O)N[C@@H](Cc1cccnc1)C(=O)N(C)CC(N)=O)CCC(=O)NCCCCC(=O)N2` [compound 172] ([Ava][Abu(4-yl)]NTWQC[AEF][2Nal(6-OH)][Thp]EN[3Pal][Sar]-NH2; thioether 2-7; lactam N-11), the IC50 was less than 10 pM in assay [1] and less than 10000 pM in assay [2].

As to `Cc1cccc2c(C[C@@H]3NC(=O)[C@H]([C@@H](C)O)NC(=O)[C@H](CC(N)=O)NC(=O)[C@@H](NC(=O)CCOCCOCC[N+](C)(C)C)C(C)(C)SSC(C)(C)[C@@H](C(=O)N[C@@H](Cc4ccc(OCCN)cc4)C(=O)N[C@@H](Cc4ccc5cc(O)ccc5c4)C(=O)NC4(C(=O)N[C@@H](CCC(=O)O)C(=O)N[C@@H](CC(N)=O)C(=O)N[C@@H](Cc5cccnc5)C(=O)N(C)CC(N)=O)CCOCC4)NC(=O)[C@H](CCCCN(C)C(=O)CCOCCOCC[N+](C)(C)C)NC3=O)c[nH]c12` [compound 319, cPEG3aCO-Pen(3)-N-T-7MeW-K(NMecPEG3a)-Pen(3)-AEF-6OH2Nal-THP-E-N-3Pya-Sar-CONH2] ({Me3N+(CH2)2O(CH2)2O(CH2)2CO}-[Pen]NT[Trp(7-Me)][Lys(Me)](Me3N+(CH2)2O(CH2)2O(CH2)2CO)[Pen][AEF][2Nal(6-OH)][Thp]EN[3Pal][Sar]-NH2; disulfide 1-6), the concentration for half-maximal inhibition (IC50) was 10 to 100 pM in assay [1] and less than 10000 pM in assay [2].

For the compound `CC(=O)N(C)CCCC[C@@H]1NC(=O)[C@H](Cc2c[nH]c3c(C)cccc23)NC(=O)[C@H]([C@@H](C)O)NC(=O)[C@H](CC(=O)N(C)C)NC(=O)[C@H]2NC(=O)[C@H](NC(=O)CCOCCOCC[N+](C)(C)C)CCCCNC(=O)CCC[C@@H](C(=O)N[C@@H](CC(N)=O)C(=O)N[C@@H](Cc3cccnc3)C(=O)N(C)CC(=O)N(C)C)NC(=O)C3(CCOCC3)NC(=O)[C@H](Cc3ccc4cc(O)ccc4c3)NC(=O)[C@H](Cc3ccc(OCCN)cc3)NC(=O)[C@@H](NC1=O)C(C)(C)SSC2(C)C` [compound 373, cPEG3aCO-k(2)-Pen(3)-N(N(Me)2)-T-7MeW-K(NMeAc)-Pen(3)-AEF-6OH2Nal-THP-hE(2)-N-3Pya-Sar-CON(Me)2] ({Me3N+(CH2)2O(CH2)2O(CH2)2CO}-[dK][Pen]D(NMe2)T[Trp(7-Me)][Lys(Me)](Ac)[Pen][AEF][2Nal(6-OH)][Thp][Aad]N[3Pal][Sar]-NMe2; lactam 1-11; disulfide 2-7), the 50% inhibitory concentration (IC50) is less than 10 pM in assay [1] and less than 10000 pM in assay [2].

Take `CC(=O)NCCCC[C@@H]1NC(=O)[C@H](Cc2c[nH]c3c(C)cccc23)NC(=O)[C@H]([C@@H](C)O)NC(=O)[C@H](CC(N)=O)NC(=O)[C@@H]2CCSC[C@H](NC1=O)C(=O)N[C@@H](Cc1ccc(OCCN)cc1)C(=O)N[C@@H](Cc1ccc3cc(O)ccc3c1)C(=O)NC1(CCOCC1)C(=O)N[C@H](C(=O)N[C@@H](CC(N)=O)C(=O)N[C@@H](Cc1cccnc1)C(=O)N(C)CC(N)=O)CCC(=O)NCCCCC(=O)N2` [compound 171] ([Ava][Abu(4-yl)]NT[Trp(7-Me)]K(Ac)C[AEF][2Nal(6-OH)][Thp]EN[3Pal][Sar]-NH2; thioether 2-7; lactam N-11): the results for the IC50 in assay [1] and in assay [2] were less than 10 pM and less than 10000 pM, respectively.
